According to PubChem BioAssay AID1378 (University of Pittsburgh Molecular Library Screening Center, 2008):
Calls of active or inactive are those of the source. The rule behind the calls is not given here.

Molecular target: RAC-alpha serine/threonine-protein kinase (Homo sapiens) (UniProt P31749)
Experiment: off-target activity on human AKT1 kinase – biochemical, 57K library, IC50, selectivity assay for PKD inhibitor project, dose response (AID 1378)

Sequence of RAC-alpha serine/threonine-protein kinase (Homo sapiens) (P31749 whole entry, looked up): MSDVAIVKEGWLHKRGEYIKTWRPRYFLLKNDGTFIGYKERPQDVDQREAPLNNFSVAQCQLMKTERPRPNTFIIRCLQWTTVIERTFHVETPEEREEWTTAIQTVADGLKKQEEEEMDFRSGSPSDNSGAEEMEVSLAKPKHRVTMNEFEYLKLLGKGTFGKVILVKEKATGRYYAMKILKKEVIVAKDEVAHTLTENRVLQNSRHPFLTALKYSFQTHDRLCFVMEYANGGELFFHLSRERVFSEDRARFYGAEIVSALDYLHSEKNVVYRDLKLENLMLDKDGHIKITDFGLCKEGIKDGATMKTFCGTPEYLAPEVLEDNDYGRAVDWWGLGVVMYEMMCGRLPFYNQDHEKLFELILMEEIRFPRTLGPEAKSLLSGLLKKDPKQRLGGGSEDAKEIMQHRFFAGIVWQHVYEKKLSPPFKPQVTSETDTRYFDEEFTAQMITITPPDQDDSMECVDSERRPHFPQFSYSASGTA

IC50: > 100 µM (inactive)
Compound: C/C(=N\Nc1ncc(Cl)cc1Cl)c1ccccn1
